Common to all, as to test: inhibition of tumour cell growth, NCI panel, 48 h
In test [1] the test system is 786-0.
For test [2], the system named is A549.
Test [3] concerns DU-145.
Test [4] concerns HOP-92.
Test [5] concerns HT-29.
In test [6] the test system is K562.
Test [7] has as its system KM12.
Test [8] concerns LOX IMVI.
The subject of test [9] is M14.
Test [10] has as its system NCI-H226.
In test [11] the test system is NCI-H460.
Test [12] has as its system OVCAR-8.
The subject of test [13] is PC-3.
In test [14] the test system is SF-268.
Test [15] concerns SK-MEL-5.
The test system of test [16] is SNB-19.
Test [17] has as its system SNB-75.
Test [18] has as its system SW-620.
Test [19] concerns UACC-62.
The subject of test [20] is Malme-3M.

From ChEMBL document CHEMBL1201862, “PubChem BioAssay data set” (2004) come the findings set out here.

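Protocol summary: plate cells (96-well), add compound at 5 concentrations, incubate 48 h, interpolate endpoints linearly. Abbreviation: GI50, concentration required for 50% inhibition of growth.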 The source made the active and inactive calls. No stated cut-off is given here; in the data, active = GI50 up to about 1.1 µM and inactive = higher.

As to `c1ccc2c(c1)nc1n2CCNC1`, the GI50 in test [1], in test [2], in [3], in test [4], in test [5] and in [6] was > 100 µM (inactive) throughout. Also, the GI50 in test [7], in test [8], in test [9], in test [10], in [11] and in [12] was > 100 µM (inactive) throughout. Moreover, the GI50 in test [13], in [14], in test [15], in [16], in test [17] and in test [18] was > 100 µM (inactive) in each case. Further, the GI50 in test [19] was > 100 µM (inactive).
`COc1cc(C23OCC(Cc4cc5c(cc42)OCO5)C3CO)cc(OC)c1OC` (configuration not stated): the GI50 in [1] was 3.09 µM (inactive); in [2] it was 3.48 µM (inactive); in test [3], 2.64 µM (inactive); in test [4], > 100 µM (inactive); in [5] it was 5.64 µM (inactive); in [6], 3.89 µM (inactive). The GI50 in test [7] was 0.215 µM (active); in [8], 1.97 µM (inactive); in test [9] it was 3.64 µM (inactive); in test [20] it was 6.14 µM (inactive); in [10], 3.85 µM (inactive); in test [11], 3.23 µM (inactive). In addition, the GI50 in [12] is 4.14 µM (inactive); in [13] it was 1.85 µM (inactive); in test [14], 4.82 µM (inactive); in test [15] it was 6.7 µM (inactive); in test [16], 3.14 µM (inactive); in test [17] it was 2.23 µM (inactive). For the same molecule, in test [18], the GI50 was 3.11 µM (inactive).
With `COC(=O)[C@H]1CO[C@@H](C(C)(C)C)N1C(=O)N1C=CC(=O)C[C@@H]1C`, the GI50 in test [1], in [2], in test [3], in test [4], in test [5] and in test [6] was > 100 µM (inactive) in each case. Further, the GI50 in test [7], in test [8], in test [20], in test [10], in test [12] and in [13] was > 100 µM (inactive) throughout. Further, the GI50 in [14], in test [15], in test [17], in test [18] and in [19] was > 100 µM (inactive) throughout.
Regarding `C/C=C(\C)C(=O)OC1CC(OC(C)=O)C2(C(=O)OC)COC3C2C1(C)C1C2(C(=O)OC)OCC1(C3O)C1(O)C3CC(C4(O)C=COC4O3)C1(C)O2` (configuration not stated), the GI50 in [1], in test [2], in [3], in test [4], in [5] and in [6] was > 100 µM (inactive) each time. The GI50 in test [7], in test [8], in test [9], in test [10], in test [11] and in [12] was > 100 µM (inactive) each time. Moreover, the GI50 in test [13], in [14], in test [15], in test [17], in test [18] and in [19] was > 100 µM (inactive) throughout.
`COc1cc(OC)cc(OCc2nc3cc(C(F)(F)F)ccc3nc2-c2ccccc2)c1`: the GI50 in [1] was > 100 µM (inactive); in test [2], > 100 µM (inactive); in test [3], > 100 µM (inactive); in test [4], > 100 µM (inactive); in [5], 29.4 µM (inactive); in [6] it was > 100 µM (inactive). Also, the GI50 was > 100 µM (inactive) in test [7]; > 100 µM (inactive) in test [8]; > 100 µM (inactive) in test [9]; > 100 µM (inactive) in test [20]; 90.8 µM (inactive) in test [10]; > 100 µM (inactive) in test [11]. Further, the GI50 in test [12], in test [13], in [14], in [16], in test [17] and in test [18] was > 100 µM (inactive) each time. For the same molecule, the GI50 in test [19] was > 100 µM (inactive).
On to `CCCCSC1=N/C(=C\c2ccc(N(C)C)cc2)C(Cl)=N1`, for which the GI50 in test [1], in test [2], in test [3], in test [4], in [5] and in test [6] was > 100 µM (inactive) in each case. Besides, the GI50 in test [7], in test [8], in test [9], in test [20], in test [10] and in test [11] was > 100 µM (inactive) throughout. The GI50 was > 100 µM (inactive) in [12]; 76.6 µM (inactive) in test [13]; > 100 µM (inactive) in test [14]; > 100 µM (inactive) in test [16]; > 100 µM (inactive) in [17]; > 100 µM (inactive) in test [18]. Moreover, in [19], the GI50 was 94.4 µM (inactive).
As to `O=[N+]([O-])c1ccc(-c2csc3nc(-c4ccccc4)nn23)cc1`, the GI50 is 98.2 µM (inactive) in test [1]; > 100 µM (inactive) in [2]; > 100 µM (inactive) in [3]; 50.5 µM (inactive) in test [4]; > 100 µM (inactive) in test [5]; > 100 µM (inactive) in [6]. Moreover, the GI50 in test [7] is > 100 µM (inactive); in test [8] it was > 100 µM (inactive); in test [9], > 100 µM (inactive); in [20] it was > 100 µM (inactive); in test [10], > 100 µM (inactive); in [12], 47.5 µM (inactive). The GI50 in test [13] is > 100 µM (inactive); in test [14] it was 82 µM (inactive); in test [15], > 100 µM (inactive); in [16], > 100 µM (inactive); in [17] it was 94.6 µM (inactive); in test [18], > 100 µM (inactive). The GI50 in test [19] is > 100 µM (inactive).
Take `COc1ccc(-c2nc3cc(C(F)(F)F)ccc3n2CC2CCCN3CCCCC23)cc1` (configuration not stated): the GI50 in [1] is 19.5 µM (inactive); in test [3] it was 17.1 µM (inactive); in test [4], 14.8 µM (inactive); in test [5], 13.3 µM (inactive); in test [6], 14.8 µM (inactive); in test [7], 19.4 µM (inactive). Also, the GI50 in test [8] is 15 µM (inactive); in test [9], 13 µM (inactive); in test [10], 16.5 µM (inactive); in test [11], 15.8 µM (inactive); in test [12] it was 17.1 µM (inactive); in test [13], 13.6 µM (inactive). Besides, the GI50 in test [14] was 15.3 µM (inactive); in test [15], 14.4 µM (inactive); in test [17] it was 15.5 µM (inactive); in test [18], 15.2 µM (inactive).
Turning to `COC(=O)c1ccc(CCC2=CC(=O)C=CC2=O)cc1`, the GI50 in [1] is 2.41 µM (inactive); in test [2], 23.5 µM (inactive); in test [3], 18.2 µM (inactive); in [4], 4.43 µM (inactive); in [5], 23.1 µM (inactive); in [6] it was 2.37 µM (inactive). For the same molecule, the GI50 is 11.9 µM (inactive) in test [7]; 6.4 µM (inactive) in test [8]; 15.1 µM (inactive) in test [9]; 16.7 µM (inactive) in test [10]; 19 µM (inactive) in [11]; 17.4 µM (inactive) in [12]. Moreover, the GI50 in [13] is 12.1 µM (inactive); in [14] it was 15 µM (inactive); in test [15] it was 12.9 µM (inactive); in [16], 22.4 µM (inactive); in test [17], 16.3 µM (inactive); in test [18] it was 4.52 µM (inactive). The GI50 in [19] is 13.7 µM (inactive).
For the molecule `O=C1/C(=C/c2cccc3ccccc23)CCc2ccc([N+](=O)[O-])cc21`, the GI50 is 23.3 µM (inactive) in test [1]; 22.8 µM (inactive) in test [2]; 51.6 µM (inactive) in test [3]; 23 µM (inactive) in test [4]; 7.16 µM (inactive) in test [6]; 6.32 µM (inactive) in test [7]. Besides, the GI50 is 26.9 µM (inactive) in test [8]; 24.4 µM (inactive) in [9]; 17.3 µM (inactive) in [20]; 27.6 µM (inactive) in test [10]; 29 µM (inactive) in [11]; 37.3 µM (inactive) in [12]. Further, the GI50 was 24.5 µM (inactive) in [13]; 33.7 µM (inactive) in test [14]; 12.7 µM (inactive) in test [16]; 19.2 µM (inactive) in test [17]; 9.66 µM (inactive) in test [18]; 13.3 µM (inactive) in test [19].
Consider `CCOC(=O)N1N=C(/C(C)=N/OC)C(C)[S+]1[O-]` (configuration not stated), for which the GI50 in test [1], in [2], in [3], in [4], in test [5] and in test [6] was > 100 µM (inactive) each time. Also, the GI50 is > 100 µM (inactive) in test [7]; > 100 µM (inactive) in test [9]; > 100 µM (inactive) in [20]; > 100 µM (inactive) in test [10]; 57.7 µM (inactive) in [11]; > 100 µM (inactive) in [12]. Moreover, the GI50 in [13] was > 100 µM (inactive); in test [14], > 100 µM (inactive); in test [15], > 100 µM (inactive); in [16], > 100 µM (inactive); in test [17], 85.3 µM (inactive); in [18], > 100 µM (inactive). Moreover, the GI50 in [19] is > 100 µM (inactive).
